From article PMC10754118, “Lipophilic Nucleoside Triphosphate Prodrugs of Anti‐HIV Active Nucleoside Analogs as Potential Antiviral Compounds” (Advanced Science, 2023)
Read-outs that look alike come from different tables or passages of the source.

Tests used:
in vitro = conditions: human
Experimental: All TriPPPro‐compounds 10 and 20, as well as their parent nucleosides and the corresponding NTPs, were evaluated for their antiviral activity (expressed as EC50 values) against HIV‐1 (wild‐type CEM/0 cells) and HIV‐2 (wild‐type CEM/0 cells and thymidine kinase‐deficient (CEM/TK^−) cells) with concomitant determination of cytotoxicity in the same cell line (Table 3 ).

HIV‐2 [ROD)] = assay: Anti-HIV activity, HIV-2 in thymidine kinase-deficient CEM/TK^− cells; type: cell-based
Experimental: (§1) Part 9. Anti-HIV activity assay.
(§2) The produce was used as previously reported. 5 Inhibition of HIV-1(IIIB)- and HIV-2(ROD)-induced cytopathogenicity in wild-type CEM/0 and thymidine kinase-deficient CEM/TK– cell cultures was measured in […]
(§3) containing appropriate dilutions of the test compounds. After 4−5 days of incubation at 37 °C in a CO2-controlled humidified atmosphere, CEM giant (syncytium) cell formation was examined microscopically. The […]
(§4) giant cell formation by 50%.
(§5) Part 10. Primer-extension assays. […]

HIV‐1 [HE] = assay: Anti-HIV activity, HIV-1 in wild-type CEM/0 cells; type: cell-based; conditions: Human immunodeficiency virus 1, CCRF-CEM, read-out: Antiviral activity CEM/0 HIV‐1 [HE] EC50
HIV‐2 [ROD] = assay: Anti-HIV activity, HIV-2 in wild-type CEM/0 cells; type: cell-based; conditions: Human immunodeficiency virus 2, CCRF-CEM, read-out: Antiviral activity CEM/0 HIV‐2 [ROD] EC50
Experimental: as §1, §2, §3, §4, §5

[1] = Chemical hydrolysis in phosphate buffer saline (PBS, pH 7.3); type: physicochemical; conditions: PBS pH 7.3, 37 °C, read-out: PBS pH 7.3 t 1/2 (converted)
Experimental: Part 4. Chemical Hydrolysis of TriPPPro-compounds 10 and 20.
Second prepare 1.9 mM hydrolysis […]
Then, aliquots of 50 µL human

[2] = CEM/0 cells (wild-type CD4+ T-cells)
[3] = Human immunodeficiency virus 2, CEM-TK(-), read-out: Antiviral activity CEM/TK^− HIV‐2 [ROD)] EC50
[4] = Human immunodeficiency virus 2, CEM-TK(-), thymidine kinase-deficient CEM/TK^− cells, mean ±SD n = 2–3; read-out: Antiviral activity CEM/TK^− HIV‐2 [ROD)] EC50
[5] = wild-type CEM/0 cells, mean ±SD n = 2–3

SMILES | EC50 (HIV‐2 [ROD)]; [4]) [nM] | EC50 (HIV‐1 [HE]; [5]) [nM] | EC50 (HIV‐2 [ROD]; [5]) [nM] | half-life at 1.9 mM [1] [days] | EC50 (HIV‐2 [ROD)]; thymidine kinase-deficient CEM/TK^− cells, mean ±SD n = 2–3; read-out: Antiviral activity CEM/TK^− HIV‐2 [ROD)] EC50) [nM] | CC50 (in vitro; [2]) [nM] | EC50 (HIV‐2 [ROD)]; [3]) [nM] | EC50 (HIV‐1 [HE]) [nM] | EC50 (HIV‐2 [ROD]) [nM] | CC50 (in vitro) [nM]
Cc1cn([C@H]2C[C@H](N=[N+]=[N-])[C@@H](CO[P@](=O)(O)O[P@](=O)(O)OP(=O)(O)O)O2)c(=O)[nH]c1=O [AZTTP, reference compound] |  |  |  |  |  | > 100000 | 57900 ± 10900 | 6.9 ± 8.7 | 5.5 ± 4 | 
CCCCCCCCCCCCCCCCCCP(=O)(OCc1ccc(OC(=O)CCCC)cc1)OP(=O)(O)OP(=O)(O)OC[C@@H]1O[C@H](n2cc(F)c(N)nc2=O)CS1 (stereo partly shown) [10cz] | 20 ± 21 | 160 ± 60 | 140 ± 40 | > 62.5 |  | 66000 ± 35600 |  |  |  | 
CCCCCCCCCCCCCCCCCCOP(=O)(OCC(CC)CCCC)OP(=O)(O)OP(=O)(O)OC[C@@H]1C=C[C@H](n2cnc3c(NC4CC4)nc(N)nc32)C1 (stereo partly shown) [10hw] | 26 ± 35 | 100 ± 30 | 180 ± 110 | 7.54 |  | > 100000 |  |  |  | 
CCCCCCCCCCCCCCCCCCP(=O)(OCCCC)OP(=O)(O)OP(=O)(O)OC[C@H]1O[C@@H](n2cc(Cl)c(=O)[nH]c2=O)C[C@@H]1F (stereo partly shown) [10dx] |  |  |  | > 83.3 |  | 54400 ± 15900 | 3210 ± 1120 | 2590 ± 710 | 2230 ± 1200 | 
O=c1[nH]c(=O)n([C@H]2C[C@H](O)[C@@H](CO)O2)cc1/C=C/Br [1g (BVDU), BVDU, reference compound] | > 250000 | > 250000 | > 250000 |  |  |  |  |  |  | 207000 ± 60000
CCCCCCCCCCCCCCCCCCP(=O)(OCCCC)OP(=O)(O)OP(=O)(O)OC[C@H]1O[C@@H](n2cc(/C=C/Br)c(=O)[nH]c2=O)C[C@@H]1O (stereo partly shown) [10gx] |  |  |  | > 41.7 |  | 51500 ± 17000 | 24000 ± 2720 | > 10000 | > 10000 | 
CCCCCCCCCCCCCCCCCCP(=O)(OCCCC)OP(=O)(O)OP(=O)(O)OC[C@@H]1O[C@H](n2cc(F)c(N)nc2=O)CS1 (stereo partly shown) [10cx] |  |  |  | > 83.3 |  | 46000 | 11 | 49 ± 45 | 94 ± 23 | 
Nc1nc(NC2CC2)c2ncn([C@H]3C=C[C@@H](CO)C3)c2n1 [1h (ABC), abacavir, reference compound] |  |  |  |  |  | > 100000 |  |  |  | 
CCCCCCCCCCCCCCCCCCP(=O)(OCc1ccc(OC(=O)CCCC)cc1)OP(=O)(O)OP(=O)(O)OC[C@H]1O[C@@H](n2ccc(=O)[nH]c2=O)C[C@@H]1F (stereo partly shown) [10fz] | 160 ± 40 | 64 ± 80 | 39 ± 33 | 8.46 |  | 42000 ± 10600 |  |  |  | 
CCCCCCCCCCCCCCCCCCP(=O)(OCCCC)OP(=O)(O)OP(=O)(O)OC[C@H]1O[C@@H](n2cc(C)c(=O)[nH]c2=O)C[C@@H]1F (stereo partly shown) [10ex] |  |  |  | 6.17 |  | 43600 | 1010 ± 1140 | 390 ± 130 | 520 ± 670 | 

More lines, main results first:

EC50 (HIV‐2 [ROD)]; [4]) [nM] | EC50 (HIV‐1 [HE]; [5]) [nM] | EC50 (HIV‐2 [ROD]; [5]) [nM] | half-life at 1.9 mM [1] [days] | EC50 (HIV‐2 [ROD)]; thymidine kinase-deficient CEM/TK^− cells, mean ±SD n = 2–3; read-out: Antiviral activity CEM/TK^− HIV‐2 [ROD)] EC50) [nM] | SMILES | CC50 (in vitro; [2]) [nM] | EC50 (HIV‐2 [ROD)]; [3]) [nM] | EC50 (HIV‐1 [HE]) [nM] | EC50 (HIV‐2 [ROD]) [nM] | CC50 (in vitro) [nM]
> 100000 | 210 ± 20 | 150 ± 17 |  |  | O=c1ccn([C@H]2C[C@H](F)[C@@H](CO)O2)c(=O)[nH]1 [1e (FddU), FddU, reference compound] | > 100000 |  |  |  | 
1580 ± 1970 | 300 ± 300 | 780 ± 300 | > 16.7 |  | CCCCCCCCCCCCCCCCCCOP(=O)(OCc1ccc(OC(=O)CCCC)cc1)OP(=O)(O)OP(=O)(O)OC[C@H]1O[C@@H](n2cc(C)c(=O)[nH]c2=O)C[C@@H]1F (stereo partly shown) [10ey] | 54100 ± 15800 |  |  |  | 
1830 ± 1650 | 460 ± 360 | 460 ± 400 | 2.12 |  | CCCCCCCCCCCCCCCCCCP(=O)(OCc1ccc(OC(=O)CCCC)cc1)OP(=O)(O)OP(=O)(O)OC[C@H]1O[C@@H](n2cc(C)c(=O)[nH]c2=O)C[C@@H]1F (stereo partly shown) [10ez] | 45300 ± 16700 |  |  |  | 
6100 ± 3000 | 160 ± 190 | 54 ± 28 | > 83.3 |  | CCCCCCCCCCCCCCCCCCOP(=O)(OCC(CC)CCCC)OP(=O)(O)OP(=O)(O)OC[C@H]1O[C@@H](n2cc(C)c(=O)[nH]c2=O)C[C@@H]1N=[N+]=[N-] (stereo partly shown) [10bw] | 45600 |  |  |  | 
280 ± 120 | 1500 ± 1390 | 860 ± 190 | > 83.3 |  | CCCCCCCCCCCCCCCCCCOP(=O)(OCC(CC)CCCC)OP(=O)(O)OP(=O)(O)OC[C@H]1O[C@@H](n2cc(C)c(=O)[nH]c2=O)C[C@@H]1F (stereo partly shown) [10ew] | 52600 ± 10900 |  |  |  | 
> 20000 | 1200 ± 50 | 2200 ± 1240 | > 83.3 |  | CCCCCCCCCCCCCCCCCCOP(=O)(OCC(CC)CCCC)OP(=O)(O)OP(=O)(O)OC[C@H]1O[C@@H](n2cc(Cl)c(=O)[nH]c2=O)C[C@@H]1F (stereo partly shown) [10dw] | 56100 ± 15800 |  |  |  | 
110 ± 140 | 370 ± 470 | 140 ± 62 | > 83.3 |  | CCCCCCCCCCCCCCCCCCOP(=O)(OCC(CC)CCCC)OP(=O)(O)OP(=O)(O)OC[C@H]1O[C@@H](n2ccc(=O)[nH]c2=O)C[C@@H]1F (stereo partly shown) [10fw] | 63500 ± 27200 |  |  |  | 
> 150000 | 14 ± 8.5 | 3.4 ± 2.1 |  | > 100000 | Cc1cn([C@H]2C[C@H](N=[N+]=[N-])[C@@H](CO)O2)c(=O)[nH]c1=O [1b (AZT), AZT, reference compound] | > 100000 |  |  |  | 
> 100000 | 820 ± 330 | 1950 ± 2630 |  |  | O=c1[nH]c(=O)n([C@H]2C[C@H](F)[C@@H](CO)O2)cc1Cl [1d (FddClU), FddClU, reference compound] | > 100000 |  |  |  | 
11400 ± 4240 | > 10000 | 4210 ± 370 | > 83.3 |  | CCCCCCCCCCCCCCCCCCOP(=O)(OCC(CC)CCCC)OP(=O)(O)OP(=O)(O)OC[C@H]1O[C@@H](n2cc(/C=C/Br)c(=O)[nH]c2=O)C[C@@H]1O (stereo partly shown) [10gw] | 60300 ± 20700 |  |  |  | 
> 100000 | 2.5 ± 2.9 | 4.3 ± 1.7 |  |  | Cc1cn([C@H]2C[C@H](F)[C@@H](CO)O2)c(=O)[nH]c1=O [1f (FLT), FLT, reference compound] | > 100000 |  |  |  | 
10 ± 10 | 8.6 ± 5.7 | 20 ± 1 |  |  | Nc1nc(=O)n([C@@H]2CS[C@H](CO)O2)cc1F [1c (FTC), FTC, reference compound] | > 100000 |  |  |  | 
